Results on four molecules are retold here after ChEMBL document CHEMBL3046156, “Neoclerodane diterpenoids from Teucrium polium subsp. polium and their antifeedant activity” (2003).

Molecules are shown by their SMILES.

The subject of experiment [1] is Spodoptera littoralis. The experiment can be described thus: Antifeedant activity against Spodoptera littoralis by binary choice bioassay. In kind it is functional.
For experiment [2], the system named is Spodoptera littoralis. The experiment can be described thus: Antifeedant activity against Spodoptera littoralis assessed as antifeedant index at 100 ppm by binary choice bioassay. In kind it is functional.

As for `CC(=O)OC[C@@]12C(=O)[C@H]3OC(=O)[C@@](C[C@H](OC(C)=O)c4ccoc4)(C1CCC[C@]21CO1)[C@@H]3C` (stereo partly specified), in the experiment on Spodoptera littoralis [1], the FI50 is given as 230 ppm. The AFI in the experiment on Spodoptera littoralis [2] was determined as 6.9%.

In the experiment on Spodoptera littoralis [1], `CC(=O)OC[C@@]12C(=O)[C@H]3O[C@H](OC(C)=O)[C@](C[C@H](OC(C)=O)c4ccoc4)([C@@H]3C)[C@H]1CCC[C@]21CO1` [ACETYL-AUROPOLIN] gave an FI50 of 90 ppm. Further, in the experiment with Spodoptera littoralis [2], the AFI was determined as 57.8%. As to `CC(=O)OC[C@@]12C(=O)[C@H]3O[C@H](O)[C@](C[C@H](OC(C)=O)c4ccoc4)([C@@H]3C)[C@H]1CCC[C@]21CO1` [AUROPOLIN], the AFI in the experiment on Spodoptera littoralis [2] was 17.8%. Regarding `CC(=O)OC[C@@]12C(=O)[C@@H](OC(C)=O)[C@@H](C)[C@]3(C[C@@H](c4ccoc4)OC3=O)[C@H]1CCC[C@]21CO1` [CAPITATIN], in the experiment on Spodoptera littoralis [2], the AFI was found to be 31%.
